Laboratory results: US20050250801A1, “Method of treating cancer with azaspirane compositions” (priority 2003, published 2005)
Where two headings read alike, the source gives them in different places.

Columns and labels:
Test in all cases: NCI in vitro SRB assay, Non-Small Cell Lung Cancer
Format in all cases: cell-based
A549/ATCC = conditions: for CC50 / GI50: Homo sapiens
Method: (§1) An in vitro assay which tested the ability of N,N,-diethyl-8,8-dipropyl-2-azaspiro[4,5]decane-2-propanamine dimaleate (Compound 1) to inhibit the growth of known cancer cell lines was performed by the National Cancer Institute in accordance with standard procedures. See: Lin, Z. X., Hoult, J. R., and Raman, A. Sulphorhodamine B assay for measuring proliferation of a pigmented melanocyte cell line and its application to the evaluation of crude drugs used in the treatment of vitiligo. J Ethnopharmacol. 66: 141-150, 1999. Briefly, selected tumor cell lines were cultured in media containing five different concentrations of Compound 1. After 48 hours of continuous exposure, a sulforhodamine B (SRB) assay was used to estimate cell viability or growth via optical measurements.
(§2) From the measurements, the following values were determined: 1) the concentration of Compound 1 at which a tumor cell growth inhibition of 50% (relative to control) occurs (GI50), 2) the concentration of Compound 1 at which no growth occurs (total growth inhibition, TGI), and 3) the concentration of Compound 1 at which the […] (LC 50). […] FIG. 6 illustrates, graphically, tumor cell growth as a function of Compound 1 concentration of the scanned tumor cell lines.

NCI-H460 = conditions: for CC50 / GI50: Homo sapiens
Method: as §1, §2

NCI-H23 = conditions: for CC50 / GI50: Homo sapiens
Method: as §1, §2

EKVX = conditions: for GI50: Homo sapiens
Method: as §1, §2

[1] = A549/ATCC, Log10 conc -4.0 Moles/L
[2] = A549/ATCC, Log10 conc -5.0 Moles/L
[3] = A549/ATCC, Log10 conc -6.0 Moles/L
[4] = A549/ATCC, Log10 conc -7.0 Moles/L
[5] = A549/ATCC, Log10 conc -8.0 Moles/L
[6] = NCI-H460, Log10 conc -4.0 Moles/L
[7] = NCI-H460, Log10 conc -5.0 Moles/L
[8] = NCI-H460, Log10 conc -6.0 Moles/L
[9] = NCI-H460, Log10 conc -7.0 Moles/L
[10] = NCI-H460, Log10 conc -8.0 Moles/L
[11] = NCI-H23, Log10 conc -4.0 Moles/L
[12] = NCI-H23, Log10 conc -5.0 Moles/L
[13] = NCI-H23, Log10 conc -6.0 Moles/L
[14] = NCI-H23, Log10 conc -7.0 Moles/L
[15] = NCI-H23, Log10 conc -8.0 Moles/L

## CCCC1(CCC)CCC2(CCN(CCCN(CC)CC)C2)CC1.O=C(O)/C=C\C(=O)O.O=C(O)/C=C\C(=O)O [Compound 1, N,N,-diethyl-8,8-dipropyl-2-azaspiro[4,5]decane-2-propanamine dimaleate]
A549/ATCC; A549/ATCC
  Log10 TGI: −5.48
  TGI: 3330 nM
A549/ATCC; [1]
  Mean Optical Densities: 0.056
  Percent Growth: −78%
A549/ATCC; [2]
  Mean Optical Densities: 0.070
  Percent Growth: −73%
A549/ATCC; [3]
  Mean Optical Densities: 1.126
  Percent Growth: 80%
A549/ATCC; [4]
  Mean Optical Densities: 1.307
  Percent Growth: 96%
A549/ATCC; [5]
  Mean Optical Densities: 1.277
  Percent Growth: 94%
A549/ATCC; A549, read-out: LC50
  CC50: 7080 nM
A549/ATCC; A549, read-out: Log10 LC50 (converted)
  CC50: 7080 nM
A549/ATCC; A549/ATCC, read-out: GI50
  GI50: 1570 nM
A549/ATCC; A549/ATCC, read-out: Log10 GI50 (converted)
  GI50: 1580 nM
NCI-H460; NCI-H460, read-out: LC50
  CC50: 5080 nM
NCI-H460; NCI-H460, read-out: Log10 LC50 (converted)
  CC50: 5130 nM
NCI-H460; NCI-H460, read-out: GI50
  GI50: 1310 nM
NCI-H460; NCI-H460, read-out: Log10 GI50 (converted)
  GI50: 1320 nM
NCI-H460; NCI-H460
  Log10 TGI: −5.59
  TGI: 2580 nM
NCI-H460; [6]
  Mean Optical Densities: 0.015
  Percent Growth: −90%
NCI-H460; [7]
  Mean Optical Densities: −0.001
  Percent Growth: −100%
NCI-H460; [8]
  Mean Optical Densities: 1.075
  Percent Growth: 70%
NCI-H460; [9]
  Mean Optical Densities: 1.278
  Percent Growth: 85%
NCI-H460; [10]
  Mean Optical Densities: 1.403
  Percent Growth: 95%
NCI-H23; NCI-H23, read-out: LC50
  CC50: 6320 nM
NCI-H23; NCI-H23, read-out: Log10 LC50 (converted)
  CC50: 6310 nM
NCI-H23; NCI-H23, read-out: GI50
  GI50: 1960 nM
NCI-H23; NCI-H23, read-out: Log10 GI50 (converted)
  GI50: 1950 nM
NCI-H23; NCI-H23
  Log10 TGI: −5.45
  TGI: 3520 nM
NCI-H23; [11]
  Mean Optical Densities: 0.030
  Percent Growth: −92%
NCI-H23; [12]
  Mean Optical Densities: 0.040
  Percent Growth: −89%
NCI-H23; [13]
  Mean Optical Densities: 0.822
  Percent Growth: 107%
NCI-H23; [14]
  Mean Optical Densities: 0.814
  Percent Growth: 105%
NCI-H23; [15]
  Mean Optical Densities: 0.728
  Percent Growth: 85%
EKVX
  Log10 TGI: −5.39
  TGI: 4090 nM
EKVX; read-out: GI50
  GI50: 2110 nM
EKVX; read-out: Log10 GI50 (converted)
  GI50: 2090 nM
EKVX; Log10 conc -4.0 Moles/L
  Mean Optical Densities: 0.073
  Percent Growth: −88%
EKVX; Log10 conc -5.0 Moles/L
  Mean Optical Densities: 0.202
  Percent Growth: −67%
EKVX; Log10 conc -6.0 Moles/L
  Mean Optical Densities: 1.321
  Percent Growth: 106%
EKVX; Log10 conc -7.0 Moles/L
  Mean Optical Densities: 1.336
  Percent Growth: 108%
EKVX; Log10 conc -8.0 Moles/L
  Mean Optical Densities: 1.280
  Percent Growth: 100%
